Assay results published in patent US5760176A, “Hydrophobic attachment site for adhesion peptides” (La Jolla Cancer Research Foundation, priority 1996, dated 1998).
Where two headings read alike, the source gives them in different places. Non-standard residues stand in square brackets, D forms with d. Residues, ends and D or L forms follow the SMILES beside them. Sar = CNCC(=O)O

Tested on: MG-63 cells
[1] = Table III, phenylalanine as a hydrophobic domain, 100 μg/well

Method: The peptides were solubilized in 70% EtOH at a starting concentration of 1 mg/ml. […] The remaining wells contained 100 μl of 70% EtOH. Taking 100 μl from the 1 mg/ml solution in the first two wells, a serial dilution was performed out to 0.15 μg/well for each peptide. The plates were allowed to dry overnight at 37° C. in the presence of a desiccator.
The following day the peptide coated plates were used in a standard adhesion assay as described in Example III, using MG-63 cells, an osteosarcoma cell line available from American Type Tissue Culture.
The plates were washed lX using PBS, (151 mM NaCl/10 mM sodium phosphate, pH 7.4). The plates were incubated with DMEM (0.1 ml/well) containing bovine serum albumin (BSA 2.5 mg/ml; Sigma Chemical Co., St. Louis, Mo.) for one hour. Two×10^5 cells/ml (MG-63) were suspended in DMEM, and BSA (2.5 mg/ml). 100 μl of cell suspension was added per well and the plates are incubated at 37° C. in 7.5% CO2 /92.5% air for one hour. Afterwards, the plate was washed once in PBS. Attached cells were then fixed with 3% paraformaldehyde and stained overnight with 1% toluidine blue in 10% formaldehyde. The following day, the excess stain was removed and the plates were washed with H2 O; 100 μl of a 1% sodium dodecyl sulfate (SDS) solution was added to each well. The level of cell attachment was then measured, using a kinetic microplate reader (Molecular Devices,) by assessing the optical density at 630 nm.

Compound | percentage of maximum binding (cell attachment) | percentage of maximum binding (cell attachment) [1] | percentage of maximum binding (cell attachment) (Table III, 1.5 μg/well) | percentage of maximum binding (cell attachment) (Table III, 3 μg/well) | percentage of maximum binding (cell attachment) (Table III, 6 μg/well) | percentage of maximum binding (cell attachment) (Table III, 12 μg/well) | percentage of maximum binding (cell attachment) (Table III, 25 μg/well) | percentage of maximum binding (cell attachment) (Table III, 50 μg/well) | other results
CCCCCCCCCCCCCC(=O)O [Myristic acid] |  |  |  |  |  |  |  |  | percentage of maximum binding (cell attachment) (Table IV, myristic acid as hydrophobic carrier, 100 μg/well): 33 percentage of maximum binding; percentage of maximum binding (cell attachment) (Table IV, 6 μg/well): 45 percentage of maximum binding; percentage of maximum binding (cell attachment) (Table IV, 12 μg/well): 75 percentage of maximum binding; percentage of maximum binding (cell attachment) (Table IV, 25 μg/well): 50 percentage of maximum binding; percentage of maximum binding (cell attachment) (Table IV, 50 μg/well): 30 percentage of maximum binding
CNCC(=O)N[C@H](CCCNC(=N)N)C(=O)NCC(=O)N[C@@H](CC(=O)O)C(=O)N[C@@H](CO)C(=O)N1CCC[C@H]1C(=O)N[C@@H](C)C(=O)N[C@@H](CO)C(=O)N[C@@H](CO)C(=O)N[C@@H](CCCCN)C(=O)N[C@@H](CC(C)C)C(=O)N[C@@H](CC(C)C)C(=O)N[C@@H](CC(C)C)C(=O)N[C@@H](CC(C)C)C(=O)N[C@@H](CC(C)C)C(=O)N[C@@H](CC(C)C)C(N)=O [nMeG(dR)GDSPASSKL6 NH2] (H-[Sar][dR]GDSPASSKLLLLLL-NH2) | 9 percentage of maximum binding |  |  |  |  |  |  |  | 
CNCC(=O)N[C@H](CCCNC(=N)N)C(=O)NCC(=O)N[C@@H](CC(=O)O)C(=O)N[C@@H](CO)C(=O)N1CCC[C@H]1C(=O)N[C@@H](C)C(=O)N[C@@H](CO)C(=O)N[C@@H](CO)C(=O)N[C@@H](CCCCN)C(=O)N[C@@H](CO)C(=O)N[C@@H](CO)C(=O)N[C@@H](CCCNC(=N)N)C(=O)N[C@@H](CC(C)C)C(=O)N[C@@H](CC(C)C)C(=O)N[C@@H](CC(C)C)C(=O)N[C@@H](CC(C)C)C(=O)N[C@@H](CC(C)C)C(=O)N[C@@H](CC(C)C)C(=O)N[C@@H](CCCNC(=N)N)C(N)=O [nMeG(dR)GDSPASSKS2 RL6 RNH2] (H-[Sar][dR]GDSPASSKSSRLLLLLLR-NH2) | 38 percentage of maximum binding |  |  |  |  |  |  |  | 
CNCC(=O)N[C@H](CCCNC(=N)N)C(=O)NCC(=O)N[C@@H](CC(=O)O)C(=O)N[C@@H](CO)C(=O)N1CCC[C@H]1C(=O)N[C@@H](C)C(=O)N[C@@H](CO)C(=O)N[C@@H](CO)C(=O)N[C@@H](CCCCN)C(=O)N[C@@H](CO)C(=O)N[C@@H](CO)C(=O)N[C@@H](CO)C(=O)N[C@@H](CO)C(=O)N[C@@H](CCCNC(=N)N)C(=O)N[C@@H](CC(C)C)C(=O)N[C@@H](CC(C)C)C(=O)N[C@@H](CC(C)C)C(=O)N[C@@H](CC(C)C)C(=O)N[C@@H](CC(C)C)C(=O)N[C@@H](CC(C)C)C(=O)N[C@@H](CCCNC(=N)N)C(N)=O [nMeG(dR)GDSPASSKS4 RL6 RNH2] (H-[Sar][dR]GDSPASSKSSSSRLLLLLLR-NH2) | 76 percentage of maximum binding |  |  |  |  |  |  |  | 
XG(R)GDSPASSKL4 NH2 [Peptide L4] |  |  |  |  |  |  |  |  | percentage of maximum binding (cell attachment) (Table II, 1.5 μg/well peptide, MG-63 cells): 1 percentage of maximum binding; percentage of maximum binding (cell attachment) (Table II, 3 μg/well peptide, MG-63 cells): 1 percentage of maximum binding; percentage of maximum binding (cell attachment) (Table II, 6 μg/well peptide, MG-63 cells): 2 percentage of maximum binding; percentage of maximum binding (cell attachment) (Table II, 12 μg/well peptide, MG-63 cells): 10 percentage of maximum binding; percentage of maximum binding (cell attachment) (Table II, 25 μg/well peptide, MG-63 cells): 16 percentage of maximum binding; percentage of maximum binding (cell attachment) (Table II, 50 μg/well peptide, MG-63 cells): 12 percentage of maximum binding; percentage of maximum binding (cell attachment) (Table II, 100 μg/well peptide dried onto well, MG-63 cells): 44 percentage of maximum binding; promotion of cell attachment (result in words) (peptide coated 100 to 1.5 μg/well, MG-63 cells, summary of Table II): promoted marginal cell attachment only at the highest concentration of 100 μg/well
nMEGRGDSPASSKRF6 RNH2 |  | 70 percentage of maximum binding | 50 percentage of maximum binding | 54 percentage of maximum binding | 57 percentage of maximum binding | 52 percentage of maximum binding | 56 percentage of maximum binding | 75 percentage of maximum binding | 
nMeG(dR)GDSPASSKRF4 RNH2 [nMeGRGDSPASSKRF4 RNH2] |  | 70 percentage of maximum binding | 34 percentage of maximum binding | 50 percentage of maximum binding | 56 percentage of maximum binding | 59 percentage of maximum binding | 60 percentage of maximum binding | 73 percentage of maximum binding | 
nMeGRGDSPASSKRL5 RNH2 |  | 72 percentage of maximum binding | 34 percentage of maximum binding | 44 percentage of maximum binding | 60 percentage of maximum binding | 66 percentage of maximum binding | 58 percentage of maximum binding | 68 percentage of maximum binding | 
nMeGRGDSPASSKS3 RF6 RNH2 |  | 69 percentage of maximum binding | 70 percentage of maximum binding | 70 percentage of maximum binding | 65 percentage of maximum binding | 66 percentage of maximum binding | 60 percentage of maximum binding | 69 percentage of maximum binding | 
